The nature of data set [1]: Aqueous solubility of the compound by lyophilisate solubility assay. The conditions noted are these: buffer. The class given is physicochemical.
A short description of data set [2]: Metabolic stability in human liver microsomes. In kind it is ADME, Microsome. Particulars: read-out: Stability.
The nature of data set [3]: Metabolic stability in rat liver microsomes. In kind it is ADME, Microsome. Particulars: read-out: Stability. For orientation: Liver microsomes are vesicles of endoplasmic reticulum, rich in cytochrome P450 enzymes.
In another data set the test system is Liver microsomes. Nature of the data set: Metabolic stability in human liver microsomes assessed as GSH adduct formation. The class given is ADME, Microsome.

In brackets after ≈: the same amount, converted by molar mass.

In the case of `NC(=O)c1cnc(N[C@@H]2CCCC[C@@H]2N)nc1Nc1cccc(-n2nccn2)c1`, in data set [1], the solubility (commonly the dissolved amount per volume that the medium holds) is less than 1 µg/mL. For the same compound, the CLhep predicted in data set [2] was 3 mL/min/kg; in data set [3], 10 mL/min/kg. Besides, in the data set with Liver microsomes, the Stability entry is on record as “Stable”.
`COc1ccc(Nc2nc(-c3cccc(C(=O)Nc4ccc(C(=O)O)cc4)c3)nc3scnc23)cc1OC`: the solubility in data set [1] was less than 1 µg/mL.
`Cn1nc(-c2cnc3[nH]cc(C(=O)NC(C)(C)C)c3n2)c2cc(OC(F)F)ccc21` came in with a solubility in data set [1] of less than 1 µg/mL. Also, the CLhep predicted in data set [2] was 18 mL/min/kg; in data set [3], 51 mL/min/kg.
Regarding `CC(C)(C)NC(=O)c1c[nH]c2ncc(-c3n[nH]c4ccc(OC(F)F)cc34)nc12`, the solubility in data set [1] was less than 1 µg/mL. Also, the CLhep predicted is 10 mL/min/kg in data set [2] and 30 mL/min/kg in data set [3]. The Stability result in the data set on Liver microsomes is “Stable”.
For `CC(C)(C)NC(=O)c1c[nH]c2ncc(-c3n[nH]c4c(CO)cccc34)nc12`, the solubility in data set [1] is less than 1 µg/mL. For the same compound, the figures for the CLhep predicted in data set [2] and in data set [3] were 7 mL/min/kg and 51 mL/min/kg, respectively.
As for `CN(C)CCCn1nc(-c2cnc3[nH]cc(C(=O)NC(C)(C)C)c3n2)c2cc(OC(F)F)ccc21`, the solubility in data set [1] was less than 1 µg/mL. Also, the figures for the CLhep predicted in data set [2] and in data set [3] were 9 mL/min/kg and 46 mL/min/kg, respectively. In the data set with Liver microsomes, the Stability entry is on record as “Stable”.
Take `CN(C)CCCn1nc(-c2cnc3[nH]cc(C(=O)NC(C)(C)CO)c3n2)c2cc(OC(F)F)ccc21`: the concentration in solution in data set [1] (solubility) was 586 µg/mL (≈ 1170 µM). For the same compound, the figures for the CLhep predicted in data set [2] and in data set [3] were 12 mL/min/kg and 41 mL/min/kg, respectively.
As to `CC(C)(C)NC(=O)c1c[nH]c2ncc(-c3nn(CCC(O)CO)c4ccc(OC(F)F)cc34)nc12` (stereo unspecified), in data set [1], the solubility was less than 1 µg/mL. In addition, the CLhep predicted in data set [2] is 8 mL/min/kg; in data set [3], 49 mL/min/kg.
For `CC(C)(C)NC(=O)c1c[nH]c2ncc(-c3nn(CCCS(C)(=O)=O)c4cc(F)ccc34)nc12` the same measures were less than 1 µg/mL, 8 mL/min/kg and 43 mL/min/kg.
As to `CC(C)(C)NC(=O)c1c[nH]c2ncc(-c3nn(CCC(O)CO)c4cc(F)ccc34)nc12` (stereo unspecified), the solubility in data set [1] is less than 1 µg/mL. Besides, the CLhep predicted is 4 mL/min/kg in data set [2] and 23 mL/min/kg in data set [3].
With `CC(C)(C)NC(=O)c1c[nH]c2ncc(-c3nn(C4CCNCC4)c4cc(F)ccc34)nc12`, the solubility in data set [1] is less than 1 µg/mL. In addition, the CLhep predicted in data set [2] is 3 mL/min/kg; in data set [3], 6 mL/min/kg. For the same compound, the Stability result in the data set with Liver microsomes was “Stable”.
In data set [1], `CC(C)NC(=O)c1c[nH]c2ncc(-c3nn(C)c4c3CC(C)(C)CC4)nc12` had a solubility of less than 1 µg/mL. Also, the CLhep predicted in data set [2] is 19 mL/min/kg; in data set [3], 50 mL/min/kg.
For `COc1ccc2cnn(-c3cnc4[nH]cc(C(=O)NC(C)(C)C)c4n3)c2c1` the same measures were less than 1 µg/mL, 11 mL/min/kg and 37 mL/min/kg.
As to `CC(C)(CO)NC(=O)c1c[nH]c2ncc(-n3ncc4ccc(Cl)cc43)nc12`, in data set [1], the solubility was less than 1 µg/mL. Besides, the CLhep predicted in data set [2] is 14 mL/min/kg; in data set [3] it was 35 mL/min/kg. For the same compound, in the data set on Liver microsomes, the Stability result was “Stable”.
For the compound `C[C@@H](CO)NC(=O)c1c[nH]c2ncc(-c3nn(C)c4cc(Cl)ccc34)nc12`, the solubility in data set [1] is less than 1 µg/mL. For the same compound, the CLhep predicted in data set [2] is 16 mL/min/kg; in data set [3], 47 mL/min/kg. Moreover, the Stability entry in the data set on Liver microsomes is reported as “Stable”.
In data set [1], `Cn1nc(-c2cnc3[nH]cc(C(=O)N[C@H]4C[C@H](O)C4)c3n2)c2ccc(F)cc21` showed a solubility of less than 1 µg/mL. Also, the figures for the CLhep predicted in data set [2] and in data set [3] were 17 mL/min/kg and 43 mL/min/kg, respectively.
The compound `COc1cc(Nc2ncc(F)c(Nc3ccc4c(n3)N(COP(=O)(O)O)C(=O)C(C)(C)O4)n2)cc(OC)c1OC` [FOSTAMATINIB] gave a solubility in data set [1] of less than 1 µg/mL. Also, the figures for the CLhep predicted in data set [2] and in data set [3] were 18 mL/min/kg and 47 mL/min/kg, respectively. Moreover, the Stability result in the data set on Liver microsomes was “Unstable”.

The record behind these values is ChEMBL document CHEMBL2346624, “Pyrrolopyrazines as selective spleen tyrosine kinase inhibitors” (J Med Chem, 2013).
